Test results as given in patent US4681893A, “Trans-6-[2-(3- or 4-carboxamido-substituted pyrrol-1-yl)alkyl]-4-hydroxypyran-2-one inhibitors of cholesterol synthesis” (Warner-Lambert Company, priority 1986, dated 1987).

How the values were obtained:
[1] = test system: biosynthesis of cholesterol (sterol synthesis) in rat liver homogenate; assay: CSI screen: inhibition of sterol synthesis (incorporation of cholesterol-14C-acetate into nonsaponifiable lipid) by rat liver homogenate; assay type: biochemical; settings: one-hour period, cholestyramine-fed rats, read-out: IC50 (Micromoles/liter) CSI
Method: The ability of compounds of the present invention to inhibit the biosynthesis of cholesterol was measured by two methods. A first method (designated CSI screen) utilized the procedure described by R. E. Dugan et al., Archiv. Biochem. Biophys., (1972), 152, 21-27. In this method, the level of HMG-CoA enzyme activity in standard laboratory rats is increased by feeding the rats a chow diet containing 5% cholestyramine for four days, after which the rats are sacrificed.
The rat livers are homogenized, and the incorporation of cholesterol-^14 C-acetate into nonsaponifiable lipid by the rat liver homogenate is measured. The micromolar concentration of compound required for 50% inhibition of sterol synthesis over a one-hour period is measured, and expressed as an IC50 value.

HMG-CoA reductase = target: T1, HMG-CoA reductase (Rattus norvegicus, UniProt P51639); assay: COR screen: conversion of 14C-HMG-CoA to 14C-mevalonate by a purified HMG-CoA reductase preparation; assay type: biochemical; settings: purified enzyme preparation of HMG-CoA reductase, read-out: IC50 (Micromoles/liter) COR
T1 sequence (P51639 1-887): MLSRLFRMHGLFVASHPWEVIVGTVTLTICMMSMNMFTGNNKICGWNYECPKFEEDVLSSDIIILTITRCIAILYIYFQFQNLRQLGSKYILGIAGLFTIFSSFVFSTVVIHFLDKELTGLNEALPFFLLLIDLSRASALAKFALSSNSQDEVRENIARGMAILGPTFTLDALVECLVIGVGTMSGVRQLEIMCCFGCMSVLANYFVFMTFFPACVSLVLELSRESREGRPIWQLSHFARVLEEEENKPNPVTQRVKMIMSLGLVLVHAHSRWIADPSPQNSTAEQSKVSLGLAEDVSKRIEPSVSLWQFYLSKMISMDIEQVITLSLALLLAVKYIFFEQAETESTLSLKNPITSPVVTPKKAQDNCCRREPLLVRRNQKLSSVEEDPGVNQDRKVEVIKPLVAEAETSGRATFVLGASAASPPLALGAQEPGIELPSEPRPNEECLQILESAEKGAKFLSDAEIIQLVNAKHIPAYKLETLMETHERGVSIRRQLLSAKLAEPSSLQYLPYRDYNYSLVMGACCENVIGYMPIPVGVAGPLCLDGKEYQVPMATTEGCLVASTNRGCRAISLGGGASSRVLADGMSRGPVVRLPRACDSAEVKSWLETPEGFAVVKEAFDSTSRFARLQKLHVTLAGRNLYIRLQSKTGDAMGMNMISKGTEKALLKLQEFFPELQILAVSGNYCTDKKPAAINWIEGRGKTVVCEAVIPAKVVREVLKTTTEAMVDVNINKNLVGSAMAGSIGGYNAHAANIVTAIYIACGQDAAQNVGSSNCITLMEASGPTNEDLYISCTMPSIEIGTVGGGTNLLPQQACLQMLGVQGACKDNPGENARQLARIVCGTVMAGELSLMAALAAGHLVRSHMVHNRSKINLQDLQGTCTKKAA
Method: A second method (designated COR screen) employed the procedure detailed by T. Kita, et al., J. Clin. Invest., (1980), 66: 1094-1100. In this method, the amount of ^14 C-HMG-CoA converted to ^14 C-mevalonate in the presence of a purified enzyme preparation of HMG-CoA reductase was measured. The micromolar concentration of compound required for 50% inhibition of cholesterol synthesis was measured and recorded as an IC50 value.

| IC50 (HMG-CoA reductase) | Compound | IC50 [1] |
| --- | --- | --- |
| 50 nM | CC(C)c1c(C(=O)Nc2ccccc2)c(-c2ccccc2)c(-c2ccc(F)cc2)n1CC[C@H]1C[C@H](O)CC(=O)O1 (relative stereo) [Compound 1, trans-5-(4-fluorophenyl)-2-(1-methylethyl)-N,4-diphenyl-1-[2-(tetrahydro-4-hydroxy-6-oxo-2H-pyran-2-yl)ethyl]-1H-pyrrole-3-carboxamide] | 35 nM |
| 400 nM | O=C1C[C@@H](O)C[C@H](CCn2c(-c3ccc(F)cc3)c(C(=O)Nc3ccccc3)c(-c3ccccc3)c2C(F)(F)F)O1 (relative stereo) [Compound 2, trans-2-(4-fluorophenyl)-N,4-diphenyl-1-[2-(tetrahydro-4-hydroxy-6-oxo-2H-pyran-2-yl)ethyl]-5-(trifluoromethyl)-pyrrole-3-carboxamide] | 400 nM |
| 20 nM | O=C1C[C@@H](O)C[C@H](CCn2c(-c3ccc(F)cc3)c(-c3ccccc3)c(C(=O)Nc3ccccc3)c2C(F)(F)F)O1 (relative stereo) [Compound 3, trans-5-(4-fluorophenyl)-N,4-diphenyl-1-[2-(tetrahydro-4-hydroxy-6-oxo-2H-pyran-2-yl)ethyl]-2-(trifluoromethyl)-pyrrole-3-carboxamide] | 18 nM |
| – | CC[C@H](C)C(=O)O[C@H]1CCC=C2C=C[C@H](C)[C@H](CC[C@@H]3C[C@@H](O)CC(=O)O3)[C@H]21 [Compactin, reference compound] | 26 nM |
